ChEMBL document CHEMBL3992548, “Design, synthesis and biological evaluation of 2,4-disubstituted oxazole derivatives as potential PDE4 inhibitors” (Bioorg Med Chem, 2017)

Columns and labels:
[1] = tested on: PBMC; assay: Anti-inflammatory activity in human PBMC assessed as inhibition of LPS-induced TNFalpha secretion preincubated for 30 mins followed by LPS stimulation for 18 hrs by TR-FRET assay; type: functional, cell-based
[2] = biological target: 3',5'-cyclic-AMP phosphodiesterase 4B (Homo sapiens, UniProt Q07343); assay: Inhibition of human U937 cells-derived PDE4B using [3H]cAMP as substrate after 30 mins
[3] = tested on: Mus musculus; assay: Anti-inflammatory activity in LPS-induced Swiss albino mouse sepsis model assessed as inhibition of TNF-alpha release in serum at 10 mg/kg, po administered 30 mins prior to LPS challenge measured after 90 mins by ELISA relative to control; type: functional
[4] = biological target: 3',5'-cyclic-AMP phosphodiesterase 4D (Homo sapiens, UniProt Q08499); assay: Inhibition of human U937 cells-derived PDE4D using [3H]cAMP as substrate after 30 mins
[5] = tested on: Rattus norvegicus; assay: Anti-inflammatory activity in Sprague-Dawley rat model of LPS-induced asthma/COPD assessed as inhibition of neutrophilia in lungs at 10 mg/kg, po administered 30 mins prior to LPS challenge for 40 mins measured after 6 hrs relative to control; type: functional

Chain of 3',5'-cyclic-AMP phosphodiesterase 4B (Q07343 whole entry): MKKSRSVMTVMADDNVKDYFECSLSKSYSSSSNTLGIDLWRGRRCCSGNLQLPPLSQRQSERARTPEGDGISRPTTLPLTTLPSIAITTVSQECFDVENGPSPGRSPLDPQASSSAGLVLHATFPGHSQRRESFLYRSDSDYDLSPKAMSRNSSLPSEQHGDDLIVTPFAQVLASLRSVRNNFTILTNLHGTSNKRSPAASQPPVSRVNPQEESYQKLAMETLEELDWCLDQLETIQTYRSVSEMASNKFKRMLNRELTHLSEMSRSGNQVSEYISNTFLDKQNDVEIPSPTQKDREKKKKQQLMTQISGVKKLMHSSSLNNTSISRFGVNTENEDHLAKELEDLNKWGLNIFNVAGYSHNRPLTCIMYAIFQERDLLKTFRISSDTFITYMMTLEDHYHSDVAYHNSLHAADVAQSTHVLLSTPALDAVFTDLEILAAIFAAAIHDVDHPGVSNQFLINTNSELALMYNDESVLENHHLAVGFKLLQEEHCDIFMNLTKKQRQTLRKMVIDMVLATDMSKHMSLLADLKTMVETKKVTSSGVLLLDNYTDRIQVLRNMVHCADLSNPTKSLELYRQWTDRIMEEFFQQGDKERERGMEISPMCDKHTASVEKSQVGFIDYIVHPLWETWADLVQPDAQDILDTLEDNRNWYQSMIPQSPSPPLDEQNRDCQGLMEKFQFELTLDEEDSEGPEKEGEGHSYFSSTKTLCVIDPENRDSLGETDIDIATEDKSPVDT
Chain of 3',5'-cyclic-AMP phosphodiesterase 4D (Q08499 whole entry): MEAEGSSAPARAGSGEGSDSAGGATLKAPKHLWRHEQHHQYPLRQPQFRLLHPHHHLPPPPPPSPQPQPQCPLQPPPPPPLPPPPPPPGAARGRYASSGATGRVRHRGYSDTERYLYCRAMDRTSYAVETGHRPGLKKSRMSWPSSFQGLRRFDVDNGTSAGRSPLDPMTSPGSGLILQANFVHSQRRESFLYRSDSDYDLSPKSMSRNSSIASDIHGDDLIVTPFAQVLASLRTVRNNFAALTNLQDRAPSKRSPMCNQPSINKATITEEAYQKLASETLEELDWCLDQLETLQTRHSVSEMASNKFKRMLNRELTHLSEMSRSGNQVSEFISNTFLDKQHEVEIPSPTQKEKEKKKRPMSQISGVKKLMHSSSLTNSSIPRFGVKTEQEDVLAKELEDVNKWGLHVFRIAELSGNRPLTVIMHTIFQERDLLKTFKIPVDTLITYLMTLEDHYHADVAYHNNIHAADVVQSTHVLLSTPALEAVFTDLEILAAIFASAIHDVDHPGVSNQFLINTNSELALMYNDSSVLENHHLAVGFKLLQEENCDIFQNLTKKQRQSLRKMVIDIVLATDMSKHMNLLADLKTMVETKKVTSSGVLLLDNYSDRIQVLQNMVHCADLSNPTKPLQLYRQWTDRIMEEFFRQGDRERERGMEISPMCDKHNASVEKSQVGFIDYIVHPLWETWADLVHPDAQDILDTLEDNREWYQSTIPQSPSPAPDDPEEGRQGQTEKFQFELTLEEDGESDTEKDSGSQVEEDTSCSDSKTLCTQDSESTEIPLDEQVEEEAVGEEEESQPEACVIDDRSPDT

| SMILES | IC50 [1] [µM] | IC50 [2] [µM] | inhibition in vivo at 10 mg/kg [3] [%] | IC50 [4] [µM] | inhibition in vivo at 10 mg/kg [5] [%] |
| --- | --- | --- | --- | --- | --- |
| Cc1cc(C)n(C(=O)c2coc(-c3ccc(Br)cc3)n2)n1 | 168 | 54.8 | – | – | – |
| O=C(c1coc(-c2ccccc2O)n1)n1cccn1 | 205 | 85.6 | – | – | – |
| Cc1ccc(-c2nc(C(=O)n3nc(C)cc3C)co2)cc1 | 36.7 | 6.7 | – | – | – |
| O=C(c1coc(-c2cccc(F)c2)n1)n1cccn1 | 99.6 | 45.1 | – | – | – |
| O=C(c1coc(-c2ccc(O)cc2)n1)n1cccn1 | 75.5 | 18.4 | – | – | – |
| Cc1cc(C)n(C(=O)c2coc(-c3cccc(O)c3)n2)n1 | 78.4 | 28.9 | – | – | – |
| O=C(c1coc(-c2ccccc2)n1)n1cccn1 | 199 | 88.7 | – | – | – |
| Cc1cc(C)n(C(=O)c2coc(-c3ccccc3)n2)n1 | 199 | 75.8 | – | – | – |
| O=C(c1coc(-c2ccc(F)cc2)n1)n1cccn1 | 54.8 | 9.8 | – | – | – |
| Cc1cc(C)n(C(=O)c2coc(-c3cccc(F)c3)n2)n1 | 83.4 | 40.8 | – | – | – |
| Cc1cc(C)n(C(=O)c2coc(-c3ccc(F)cc3)n2)n1 | 29.7 | 8.4 | – | – | – |
| COc1ccc(-c2nc(C(=O)n3cccn3)co2)cc1 | 20.8 | 3.2 | 26.1 | 8.4 | 22.4 |
| COc1ccc(-c2nc(C(=O)n3nc(C)cc3C)co2)cc1 | 10.3 | 1.6 | 42.6 | 10.6 | 39.1 |
| Cc1cc(C)n(C(=O)c2coc(-c3ccccc3O)n2)n1 | 139 | 54.8 | – | – | – |
| O=C(c1coc(-c2cccc(O)c2)n1)n1cccn1 | 88.4 | 39.7 | – | – | – |
| Cc1cc(C)n(C(=O)c2coc(-c3ccc(O)cc3)n2)n1 | 66.4 | 15.8 | – | – | – |
| O=C(c1coc(-c2ccc(Cl)cc2)n1)n1cccn1 | 40.1 | 5.3 | – | – | – |
| COc1cccc(-c2nc(C(=O)n3cccn3)co2)c1 | 45.8 | 5.9 | – | – | – |
| O=C(c1coc(-c2ccc(Br)cc2)n1)n1cccn1 | 187 | 58.7 | – | – | – |
| COc1cccc(-c2nc(C(=O)n3nc(C)cc3C)co2)c1 | 18.7 | 4.5 | – | – | – |
| Cc1ccc(-c2nc(C(=O)n3cccn3)co2)cc1 | 72.4 | 17.5 | – | – | – |
| Cc1cc(C)n(C(=O)c2coc(-c3ccc(Cl)cc3)n2)n1 | 27.6 | 4.1 | – | – | – |
| COc1ccc(C2CNC(=O)C2)cc1OC1CCCC1 (stereo not drawn) [ROLIPRAM] | 18.6 | – | 40.8 | – | 30.9 |
